The nature of data set [1]: Plasma concentration after intragastric administration to cynomolgus monkey (LC-MS/MS). The class given is in vivo. Conditions: male cynomolgus monkey, fasted, 3 mg/kg intragastric in 0.5% MC; for AUC: Area under the plasma concentration versus time curve: blood up to 48 h, noncompartment model; for Cmax: po, plasma, read-out: Cmax: Maximum concentration. The method, then:
Cynomolgus monkey (male) was used, and was fasted from the day before the administration of the Test Compound.
Administration samples were prepared by adding 0.5% MC (methyl cellulose) solution to the Test Compound, so that the dose becomes 3 mg/2 mL/kg. Each of the administration samples was administered intragastrically to the cynomolgus monkey by using a tube. After the samples were administered, approximately 5 mL of 0.5% MC was administered. For each of the administration samples, a group of two cynomolgus monkeys was administered.
With respect to collection of blood, it was conducted by collecting approximately 0.5 mL of blood from femoral vein using a glass syringe treated with heparin, before administration, and 30 minutes, 1, 2, 4, 6, 8, 24 and 48 hours after administration. Blood was centrifuged (1,700×g, 15 min, 4° C.) to obtain plasma. Plasma was stored in a freezer (−20° C.) until pretreatment.
Preparation of standard solution and internal standard (“IS”) solution: Each of the Test Compounds was dissolved in DMSO (dimethyl sulfoxide) to prepare a solution of 10 mM each. Each of the compound solution was diluted with acetonitrile, and thus standard solution was prepared. Further, niflumic acid (Wako Pure Chemical Industries, Ltd.) was dissolved in DMSO at the concentration of 2 mM, followed by dilution with acetonitrile to prepare an IS solution of 2 μM.
Pretreatment of plasma samples: 20 μL of plasma sample was collected, and then 25 μL of purified water, 100 μL of acetonitrile, and 100 μL of methanol was added. For the preparation of a calibration curve, 25 μL of purified water, 20 μL of each of the standard solutions (acetonitrile solution), 80 μL of acetonitrile, and 100 μL of methanol were added to 20 μL of blank plasma. 40 μL of the acetonitrile solution of IS was added to all of the samples, and then the samples were stirred, filtered by suction using Captiva filter plate (Varian, Inc.), and then the filtrate was used as the sample for LC-MS/MS analysis.
Quantitative Determination of Test Compound: Concentration in plasma was analyzed by LC-MS/MS method for each Test Compound.
[HPLC Analysis Conditions]
• HPLC: WATERS 2795 (Waters Corporation); • Column: CAPCELL PAK C8, 2.0 mm I.D.×50 mm, 5 μm (Shiseido Co., Ltd.) • Mobile Phase: A=5 mM ammonium acetate aqueous solution, B=acetonitrile [MS/MS Analysis Conditions] • MS: Quattro micro API (Waters Corporation) • Ionization Method: Electrospray Ionization (“ESI”) • Ionization Mode: Positive • Detection Mode: MRM • Analysis: Pharmacokinetic parameter was calculated from concentration of each of the drugs in plasma, by using WinNonlin Professional (Ver. 4.0.1, Pharsight Corporation). Here, noncompartment model was used as the model for parameter calculation. (Results)

In data set [2] the target is T1, human mineralocorticoid receptor (hMR), GAL4-hMR receptor (Homo sapiens, UniProt P08235).
T1 construct: expressed in transfected cells; host or cells: HEK293
T1 sequence (P08235 726-964 limits assumed): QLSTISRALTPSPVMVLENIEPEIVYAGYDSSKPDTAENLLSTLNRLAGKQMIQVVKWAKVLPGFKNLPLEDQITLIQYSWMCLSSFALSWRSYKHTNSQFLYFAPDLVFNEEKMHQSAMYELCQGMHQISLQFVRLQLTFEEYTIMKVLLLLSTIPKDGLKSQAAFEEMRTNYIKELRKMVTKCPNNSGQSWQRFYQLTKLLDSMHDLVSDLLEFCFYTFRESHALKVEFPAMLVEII
Kind of data set: GAL4-hMR-LBD luciferase reporter assay in HEK293 cells with 1 nM aldosterone (mineralocorticoid receptor antagonistic action). The class given is cell-based. The settings on record: for IC50: concentration which shows Imax/2, HEK293, GAL4-hMR-LBD, luciferase, with 1 nM aldosterone, read-out: ICmax50; for Imax: maximum value, DMSO control = 0%, 1 nM aldosterone control = 100%, HEK293 luciferase reporter. The procedure:
A plasmid pM-hMR-LBD expressing GAL4-hMR receptor, which has a ligand binding domain (LBD, corresponds to approximately 308 amino acids at the carboxy terminus) of human mineralocorticoid receptor (hMR, NM_000901) bonded to a DNA binding domain of yeast transcription factor GAL4 (corresponding to 147 amino acids at the amino terminus), was prepared. Reporter assay was conducted by using a reporter plasmid (such as STRATAGENE CLONING SYSTEMS, pFR-Luc) including a luciferase gene, having a sequence (UAS sequence) which binds to the DNA binding domain of GAL4.
The plasmid pM-hMR-LBD and the reporter plasmid as obtained above were gene transferred into renal cell line HEK293 of human fetus by lipofection. On the next day, cells were collected by trypsin treatment, and were dispensed with DMEM culture medium containing 5% of FBS treated by activated charcoal, to a white 96-well plate (Costar) with the amount of 95 microliter per well.
The Test Compounds were used by dissolving them in dimethyl sulfoxide at a predetermined concentration, and the test compounds suitably diluted with culture media were added to the cells on the white 96-well plate so that the final concentration becomes 0.1%. When adding the Test Compounds, they were accompanied with 1 nM aldosterone. The well group of Control group 1 was added with dimethyl sulfoxide, and the well group of Control group 2 was added with 1 nM aldosterone. After addition, cultivation was carried out overnight.
On the next day, the culture media was removed, and then luciferase substrate (Wako Pure Chemical Industries, Ltd.) was prepared in accordance with the attached document and were added to each well by 50 microliters. Stirring was conducted for approximately 30 minutes, and the amount of luminescence was measured for each well by using Analyst (Molecular Devices), to obtain luciferase activity. A graph which plots relative luciferase activity values, when the luciferase activity value of Control group 1 was taken as 0% and the luciferase activity value of Control group 2 was taken as 100%, for each of the amount of the test compound addition group was made.

For `Cc1c(C(=O)Nc2ccc(S(C)(=O)=O)cc2)cn(CCO)c1-c1ccccc1C(F)(F)F` (racemic) [Comparative compound, 1-(2-hydroxyethyl)-4-methyl-N-[4-(methylsulfonyl)phenyl]-5-[2-(trifluoromethyl)phenyl]-1H-pyrrole-3-carboxamide, reference compound], in data set [1], the “AUC: Area under the plasma concentration versus time curve” value was found to be 4090 ng·h/mL and the Cmax amounted to 230 ng/mL. In data set [2], the IC50 was found to be 5.3 nM and the Imax turned out to be 105%.

With `Cc1c(C(=O)Nc2ccc(S(C)(=O)=O)cc2)cn([C@H](C)[C@H](C)O)c1-c1ccccc1C(F)(F)F` (single isomer, unassigned) [Example 1-isomer B], the IC50 in data set [2] was > 1000 nM.

For `Cc1c(C(=O)Nc2ccc(S(C)(=O)=O)cc2)cn([C@H](C)[C@H](C)O)c1-c1ccc(F)cc1Cl` (single isomer, unassigned) [Example 4-isomer A], in data set [2], the IC50 amounted to 11 nM and the Imax is listed as 103%.

As to `Cc1c(C(=O)Nc2ccc(S(C)(=O)=O)cc2)cn([C@H](C)[C@H](C)O)c1-c1ccc(Cl)cc1C(F)(F)F` (single isomer, unassigned) [Example 3-isomer A], in data set [1], the “AUC: Area under the plasma concentration versus time curve” value is 42490 ng·h/mL and the Cmax turned out to be 1440 ng/mL. In data set [2], the IC50 is 4.6 nM and the Imax stood at 108%.

As to `Cc1c(C(=O)Nc2ccc(S(C)(=O)=O)cc2)cn([C@H](C)[C@H](C)O)c1-c1ccc(Cl)cc1C(F)(F)F` (atropisomer, axis not shown) [Example 3, 5-[4-Chloro-2-(trifluoromethyl)phenyl]-1-[(1R,2S)-2-hydroxy-1-methylpropyl]-4-methyl-N-[4-(methylsulfonyl)phenyl]-1H-pyrrole-3-carboxamide], in data set [2], the IC50 worked out at 6.7 nM and the Imax came to 95%.

As to `Cc1c(C(=O)Nc2ccc(S(C)(=O)=O)cc2)cn([C@H](C)[C@H](C)O)c1-c1ccccc1C(F)(F)F` [Example 1, 1-[(1R,2S)-2-Hydroxy-1-methylpropyl]-4-methyl-N-[4-(methylsulfonyl)phenyl]-5-[2-(trifluoromethyl)phenyl]-1H-pyrrole-3-carboxamide], in data set [2], the IC50 stood at 6.6 nM and the Imax stood at 115%.

Turning to `Cc1c(C(=O)Nc2ccc(S(C)(=O)=O)cc2)cn([C@H](C)[C@H](C)O)c1-c1ccc(Cl)cc1C(F)(F)F` (single isomer, unassigned) [Example 3-isomer B], in data set [2], the IC50 is > 1000 nM.

Turning to `Cc1c(C(=O)Nc2ccc(S(C)(=O)=O)cc2)cn([C@H](C)[C@H](C)O)c1-c1ccc(F)cc1Cl` (single isomer, unassigned) [Example 4-isomer B], in data set [2], the IC50 was > 1000 nM.

Consider `Cc1c(C(=O)Nc2ccc(S(C)(=O)=O)cc2)cn([C@H](C)[C@H](C)O)c1-c1ccc(F)cc1C(F)(F)F` [Example 2, 5-[4-Fluoro-2-(trifluoromethyl)phenyl]-1-[(1R,2S)-2-hydroxy-1-methylpropyl]-4-methyl-N-[4-(methylsulfonyl)phenyl]-1H-pyrrole-3-carboxamide], for which, in data set [2], the IC50 came to 6.2 nM and the Imax was 88%.

For the molecule `Cc1c(C(=O)Nc2ccc(S(C)(=O)=O)cc2)cn([C@H](C)[C@H](C)O)c1-c1ccc(F)cc1C(F)(F)F` (single isomer, unassigned) [Example 2-isomer B], the IC50 in data set [2] was > 1000 nM.

Turning to `Cc1c(C(=O)Nc2ccc(S(C)(=O)=O)cc2)cn([C@H](C)[C@H](C)O)c1-c1ccccc1C(F)(F)F` (single isomer, unassigned) [Example 1-isomer A], in data set [2], the IC50 is 2.9 nM and the Imax worked out at 117%.

Turning to `Cc1c(C(=O)Nc2ccc(S(C)(=O)=O)cc2)cn([C@H](C)[C@H](C)O)c1-c1ccc(F)cc1Cl` [Example 4, 5-(2-Chloro-4-fluorophenyl)-1-[(1R,2S)-2-hydroxy-1-methylpropyl]-4-methyl-N-[4-(methylsulfonyl)phenyl]-1H-pyrrole-3-carboxamide], in data set [2], the IC50 was 10 nM and the Imax stood at 106%.

As to `Cc1c(C(=O)Nc2ccc(S(C)(=O)=O)cc2)cn([C@H](C)[C@H](C)O)c1-c1ccc(F)cc1C(F)(F)F` (single isomer, unassigned) [Example 2-isomer A], in data set [1], the “AUC: Area under the plasma concentration versus time curve” value stood at 30320 ng·h/mL and the Cmax was 1280 ng/mL. For the same molecule, in data set [2], the IC50 is 3.8 nM and the Imax is on record as 103%.
